Experimental data as given in PMC9011347, “Small-Molecule Inhibitors Targeting Lipolysis in Human Adipocytes” (Journal of the American Chemical Society, 2022).

Experiments:
[1] = tested on: rhesus monkey ATGL; assay: TAG hydrolase assay, Expi293 lysates expressing ATGL orthologue; assay type: biochemical; conditions: NG-497 50 μM
Description: (§1) We previously developed Atglistatin (Ai), a selective inhibitor of mouse ATGL,[31],[32] which is ineffective against human ATGL.[17] Ai acts as a competitive inhibitor targeting the minimal active domain of ATGL ranging from aa 1–254.[33] This domain is highly conserved in different mammalian species (∼90% identity, Table 1) and comprises the patatin-like domain, eponymous for all members of the patatin-like phospholipase domain-containing (PNPLA) protein family.[34] We first investigated the species selectivity of Ai by performing TAG hydrolase assays[35] with lysates from Expi293 cells expressing ATGL orthologues of different species. The activity of ATGL is strongly stimulated by the co-activator protein comparative gene identification-58 (CGI-58, also known as α/β hydrolase domain containing 5, ABHD5)[36] and can be suppressed by the inhibitory protein G0/G1 switch 2 (G0S2).[37] We therefore determined ATGL activity in the presence and absence of mouse CGI-58, mouse G0S2, and Ai. As shown in Figure 1a–i, all ATGL orthologues were expressed, enzymatically active, stimulated by mouse CGI-58, and inactivated by mouse G0S2. Ai inhibited mouse (Figure 1a), rat (Figure 1b), goat (Figure 1c), dog (Figure 1e), and marmoset ATGL (Figure 1f), but not pig (Figure 1d), rhesus monkey (Figure 1g), or human ATGL (Figure 1h).
(§2) Experimental details, materials, and methods
(§3) Expression of recombinant ATGL constructs and preparation of cell lysates. Expi293 cells were cultivated in Expi293 Expression Medium (GIBCO, Thermo Fisher Scientific, Waltham, USA) at standard conditions (37°C, 5% CO2, 95% humidified atmosphere, 125 rpm). DNA constructs containing ATGL from different species and chimeric ATGL variants in pcDNA3.1(+)myc-His C Vector were obtained from BioCat GmbH (Heidelberg, Germany). Cells were transfected with ExpiFectamine293 Transfection Kit (GIBCO) in Opti-Mem reduced serum medium (GIBCO) according to the manufacturer’s instructions. After 48 h, cells were harvested by centrifugation and washed three times with PBS. Cells were disrupted in buffer A (0.25 M sucrose, 1 mM EDTA, 1 mM dithiothreitol, 20µg/ml leupeptin, 2 µg/ml antipain, 1 µg/ml pepstatin, pH 7.0) by sonication (Virsonic 475, Virtis, Gardiner, USA). Nuclei and debris were removed by centrifugation at 1,000 g and 4°C for 10 min. Protein concentrations were determined using Bio-Rad protein assay (Bio-Rad 785, Bio-Rad Laboratories, Munich, Germany) using BSA as standard.
(§4) Expression and purification of mouse CGI-58. CGI-58 was expressed and purified as described 1. In brief, the coding sequence of mouse Cgi-58 was cloned into pHis-Sumo and co-transformed with the plasmid pTf16 expressing the chaperone Tig into E. coli BL21(DE3). Cells were cultured overnight at 37°C and 180 rpm in the presence of 40 µg/ml kanamycin and 34 µg/ml chloramphenicol. Thereafter, cells were transferred into fresh LB medium, grown until OD600 of 0.6, and expression was induced by the addition of 0.5 mM IPTG. After overnight incubation at 30°C, cells were harvested at 4,500 x g and 4°C for 20 min, washed in 1x PBS, and resuspended in lysis buffer (20 mM Tris/HCl pH 7.8, 300 mM NaCl, 30 mM imidazole, 0.1% IGEPAL CA-630, 3.5 mM β-mercaptoethanol, 20 µg/ml leupeptin, 2 µg/ml antipain and 1 µg/ml pepstatin). Cells were incubated with 1 mg/ml lysozyme at 4°C for 20 min, disrupted by sonication, and lysates were centrifuged at 30,000 x g and 4°C for 40 min. His-CGI-58 was purified from the supernatant using an ÄKTA pure system (Cytiva, Uppsala, Sweden) equipped with a 5 ml HisTrap […]
(§5) Expression and purification of mouse G0S2. Chemically competent E. coli ArcticExpress (DE3) cells were transformed with the pST50-SMT3-TEV-mG0S2-His expression plasmid, plated on LB agar plates containing 100 ampicillin, and incubated […] overnight at 37°C. The next day, 10 ml LB medium supplemented with 100 μg/ml ampicillin, 20 μg/ml gentamycin and 2% glucose were inoculated with a single colony and incubated overnight at 37°C. […]

[2] = tested on: pig ATGL; assay: as above; assay type: biochemical; conditions: NG-497 50 μM
Description: as §1, §2, §3, §4, §5

SMILES: CCOc1ccc(-c2cc(OC)cc(C(=O)OC(C)C)n2)cc1 [NG-497]
- inhibition of ATGL orthologue [1]: inactivates
- reduction in TAG hydrolase activity [2]: less than 20%
